Experimental data as given in ChEMBL document CHEMBL1201862, “PubChem BioAssay data set” (2004).
Activity calls are given as the source filed them. Cut-off read from the data, not from the text of the source, for most assays here: actives have a measured EC50 and inactives only a lower limit.

What was measured:
[1] = Luminescence Cell-Based Dose Confirmation HTS to Identify Activators of 5'UTR Stem-Loop Driven Alpha-Synuclein mRNA Translation in H4 Neuroglioblastoma Cells. [Related pubchem assays: 1829 (Project Summary), 1814 (Primary HTS)]; type: functional
H4 = assay: Luminescence Cell-Based Dose Response HTS to Identify Activators of 5'UTR Stem-Loop Driven Prion Protein mRNA Translation in H4 Neuroglioblastoma Cells. [Related pubchem assays: 1829 (Project Summary), 1814 (Primary HTS)]; type: functional; conditions: Homo sapiens
[2] = Luminescence Cell-Based Dose Response HTS to Identify Activators of Luciferase Translation or Activity in H4 […] Cells. [Related pubchem assays: 1829 (Project Summary), 1814 (Primary HTS)]; type: functional
Streptococcus = assay: Group A Streptococcus viability loss, dose response, counter-screen for streptokinase expression inhibitor project, luminescence, BacTiterGlo (AID 1915); type: functional, organism-based;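 note: potency for reduction of bacterial viability or growth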
[3] = test system: Streptococcus sp. 'group A'; assay: growth inhibition of control SK(-) GAS strain, dose response, counter-screen for streptokinase expression inhibitor project, luminescence, kanamycin, BacTiterGlo, confirmation (AID 1900); type: functional, organism-based
Streptokinase A = target: T1, Streptokinase A (Streptococcus pyogenes serotype M1, UniProt P10520); assay: S. pyogenes streptokinase expression inhibitors, potency, dose response, plasminogen activation absorbance, OD405 (AID 1914); type: functional, Streptococcus pyogenes M1 GAS;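 note: secreted streptokinase activity via plasminogen activation per viability signal from cell pellet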
T1 sequence (P10520 whole entry): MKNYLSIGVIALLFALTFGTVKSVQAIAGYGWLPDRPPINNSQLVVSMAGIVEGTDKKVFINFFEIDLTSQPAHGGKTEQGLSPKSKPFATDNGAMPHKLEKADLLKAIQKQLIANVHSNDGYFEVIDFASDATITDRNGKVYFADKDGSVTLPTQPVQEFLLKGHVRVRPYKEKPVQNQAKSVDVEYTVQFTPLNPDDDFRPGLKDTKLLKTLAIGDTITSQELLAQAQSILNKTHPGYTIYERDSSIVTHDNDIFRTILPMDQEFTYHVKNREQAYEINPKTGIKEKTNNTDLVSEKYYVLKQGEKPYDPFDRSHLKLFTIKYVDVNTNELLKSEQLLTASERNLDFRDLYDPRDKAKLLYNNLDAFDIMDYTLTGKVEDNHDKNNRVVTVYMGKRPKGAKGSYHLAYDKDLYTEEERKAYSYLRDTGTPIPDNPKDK

[4] = target: T2, Replicative DNA helicase DnaB (Mycobacterium tuberculosis, UniProt P9WMR3); assay: DnaB intein splicing inhibitors, dose response, biochemical, cell-free fluorescence (AID 449749); type: functional
T2 sequence (P9WMR3 whole entry): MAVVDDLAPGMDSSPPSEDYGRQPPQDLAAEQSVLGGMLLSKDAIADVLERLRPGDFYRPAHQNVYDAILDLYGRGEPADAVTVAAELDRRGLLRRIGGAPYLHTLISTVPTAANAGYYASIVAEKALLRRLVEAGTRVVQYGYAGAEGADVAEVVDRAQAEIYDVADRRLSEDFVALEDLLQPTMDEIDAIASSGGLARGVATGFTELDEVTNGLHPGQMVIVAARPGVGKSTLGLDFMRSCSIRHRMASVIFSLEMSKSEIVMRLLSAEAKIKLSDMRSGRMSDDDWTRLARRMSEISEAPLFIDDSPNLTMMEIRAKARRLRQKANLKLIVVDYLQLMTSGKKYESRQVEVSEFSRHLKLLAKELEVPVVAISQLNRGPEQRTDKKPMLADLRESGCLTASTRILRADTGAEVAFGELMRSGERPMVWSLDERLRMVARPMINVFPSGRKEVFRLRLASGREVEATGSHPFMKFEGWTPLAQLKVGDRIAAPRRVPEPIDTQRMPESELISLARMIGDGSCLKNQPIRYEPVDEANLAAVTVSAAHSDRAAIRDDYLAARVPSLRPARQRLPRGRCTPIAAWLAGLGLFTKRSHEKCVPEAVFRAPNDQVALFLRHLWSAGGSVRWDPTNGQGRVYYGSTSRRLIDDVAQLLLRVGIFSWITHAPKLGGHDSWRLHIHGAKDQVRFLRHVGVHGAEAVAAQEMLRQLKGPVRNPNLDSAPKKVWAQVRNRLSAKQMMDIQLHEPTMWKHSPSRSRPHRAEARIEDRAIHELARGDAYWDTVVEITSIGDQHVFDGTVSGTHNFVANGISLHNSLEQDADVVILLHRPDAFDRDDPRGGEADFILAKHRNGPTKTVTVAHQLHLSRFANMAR

[5] = target: T3, Heat shock factor protein 1 (Mus musculus, UniProt P38532); assay: inhibition of MG132-induced HSE-luciferase signal, confirmation, cell-based, NIH3T3, luminescence, dose retest (AID 2382); type: functional;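 note: NIH3T3 fibroblasts with HSF1-driven luciferase reporter stressed by proteasome inhibitor MG132; luminescence from HSF1-driven luciferase expression after 8 hours of MG132 stress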
T3 sequence (P38532 whole entry): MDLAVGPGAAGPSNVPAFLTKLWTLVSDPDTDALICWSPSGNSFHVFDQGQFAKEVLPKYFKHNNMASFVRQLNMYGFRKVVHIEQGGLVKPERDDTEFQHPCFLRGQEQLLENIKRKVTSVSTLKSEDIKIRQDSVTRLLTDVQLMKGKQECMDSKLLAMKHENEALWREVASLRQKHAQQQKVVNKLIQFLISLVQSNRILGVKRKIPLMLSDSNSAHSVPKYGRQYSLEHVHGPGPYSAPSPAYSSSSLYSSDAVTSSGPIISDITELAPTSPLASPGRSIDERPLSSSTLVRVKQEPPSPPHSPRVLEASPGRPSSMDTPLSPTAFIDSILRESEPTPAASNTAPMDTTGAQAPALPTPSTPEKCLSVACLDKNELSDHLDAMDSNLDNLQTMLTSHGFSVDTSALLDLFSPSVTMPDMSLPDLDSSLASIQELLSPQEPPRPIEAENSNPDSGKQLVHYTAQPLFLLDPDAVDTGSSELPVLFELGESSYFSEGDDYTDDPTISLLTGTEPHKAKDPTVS

Protein RecA = target: T4, Protein RecA (Mycobacterium tuberculosis, UniProt P9WHJ3); assay: Fluorescence Cell-Free Homogeneous Dose Retest to Identify Inhibitors of RecA-Intein Splicing Activity. [Related pubchem assays (depositor defined):AID2097, AID2223, AID489010, AID492950]; type: functional
T4 sequence (P9WHJ3 whole entry): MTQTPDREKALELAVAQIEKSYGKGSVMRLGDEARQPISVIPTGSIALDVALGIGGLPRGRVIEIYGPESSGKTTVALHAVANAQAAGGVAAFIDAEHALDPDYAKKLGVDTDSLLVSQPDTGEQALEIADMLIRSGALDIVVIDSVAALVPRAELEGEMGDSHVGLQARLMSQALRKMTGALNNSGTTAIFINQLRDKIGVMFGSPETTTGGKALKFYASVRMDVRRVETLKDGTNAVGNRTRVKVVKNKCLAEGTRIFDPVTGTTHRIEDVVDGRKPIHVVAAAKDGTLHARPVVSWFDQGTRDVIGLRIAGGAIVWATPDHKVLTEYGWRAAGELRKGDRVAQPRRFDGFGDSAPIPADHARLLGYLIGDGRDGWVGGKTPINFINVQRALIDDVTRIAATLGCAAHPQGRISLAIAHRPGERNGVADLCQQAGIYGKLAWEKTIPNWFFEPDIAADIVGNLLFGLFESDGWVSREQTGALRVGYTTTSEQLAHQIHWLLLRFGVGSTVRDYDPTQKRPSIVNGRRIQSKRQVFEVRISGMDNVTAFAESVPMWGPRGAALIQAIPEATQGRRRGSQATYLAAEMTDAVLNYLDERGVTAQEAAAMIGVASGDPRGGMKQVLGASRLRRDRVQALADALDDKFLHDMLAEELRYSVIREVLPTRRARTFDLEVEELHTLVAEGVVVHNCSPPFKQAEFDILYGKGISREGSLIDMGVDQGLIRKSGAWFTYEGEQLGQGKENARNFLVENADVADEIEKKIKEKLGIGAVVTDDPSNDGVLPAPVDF

cells = type: functional
Cytochrome P450 1A2 = target: T5, Cytochrome P450 1A2 (Homo sapiens, UniProt P05177);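 note: PubChem cytochrome P450 panel assay, CYP1A2 panel member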
T5 sequence (P05177 whole entry): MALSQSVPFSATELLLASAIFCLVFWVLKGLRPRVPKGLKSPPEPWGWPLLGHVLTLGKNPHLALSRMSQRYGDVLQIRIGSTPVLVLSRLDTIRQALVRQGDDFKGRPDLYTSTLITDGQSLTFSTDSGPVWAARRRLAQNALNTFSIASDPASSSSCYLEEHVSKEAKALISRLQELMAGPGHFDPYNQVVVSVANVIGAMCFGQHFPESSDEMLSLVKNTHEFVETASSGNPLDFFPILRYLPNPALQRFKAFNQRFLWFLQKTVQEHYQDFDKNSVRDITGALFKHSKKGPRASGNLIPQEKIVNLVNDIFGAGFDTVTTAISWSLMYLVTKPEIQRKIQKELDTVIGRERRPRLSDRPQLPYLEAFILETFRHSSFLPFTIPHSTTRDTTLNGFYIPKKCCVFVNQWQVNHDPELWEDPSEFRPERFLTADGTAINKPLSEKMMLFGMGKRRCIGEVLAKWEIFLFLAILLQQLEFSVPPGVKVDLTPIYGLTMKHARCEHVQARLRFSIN

Cytochrome P450 2D6 = Cytochrome P450 2D6 (Homo sapiens, UniProt P10635);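 note: CYP2D6 member of a cytochrome P450 panel assay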
Cytochrome P450 3A4 = Cytochrome P450 3A4 (Homo sapiens, UniProt P08684);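 note: CYP3A4 tested as one member of a cytochrome P450 panel screen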
Chain of Cytochrome P450 3A4 (P08684 whole entry): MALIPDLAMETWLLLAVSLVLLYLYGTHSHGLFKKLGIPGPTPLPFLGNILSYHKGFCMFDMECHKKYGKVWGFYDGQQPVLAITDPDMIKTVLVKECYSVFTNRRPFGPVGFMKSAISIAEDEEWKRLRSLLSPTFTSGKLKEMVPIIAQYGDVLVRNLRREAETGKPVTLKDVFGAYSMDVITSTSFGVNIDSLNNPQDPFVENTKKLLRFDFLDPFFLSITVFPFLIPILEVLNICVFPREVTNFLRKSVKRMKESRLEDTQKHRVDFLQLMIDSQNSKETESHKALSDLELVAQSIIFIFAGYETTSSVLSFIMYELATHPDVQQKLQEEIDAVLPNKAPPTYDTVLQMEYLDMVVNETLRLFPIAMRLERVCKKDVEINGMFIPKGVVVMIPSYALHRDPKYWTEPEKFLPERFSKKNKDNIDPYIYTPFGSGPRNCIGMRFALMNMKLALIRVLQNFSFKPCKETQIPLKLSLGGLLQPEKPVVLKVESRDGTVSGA

Chain of Cytochrome P450 2D6 (P10635 whole entry): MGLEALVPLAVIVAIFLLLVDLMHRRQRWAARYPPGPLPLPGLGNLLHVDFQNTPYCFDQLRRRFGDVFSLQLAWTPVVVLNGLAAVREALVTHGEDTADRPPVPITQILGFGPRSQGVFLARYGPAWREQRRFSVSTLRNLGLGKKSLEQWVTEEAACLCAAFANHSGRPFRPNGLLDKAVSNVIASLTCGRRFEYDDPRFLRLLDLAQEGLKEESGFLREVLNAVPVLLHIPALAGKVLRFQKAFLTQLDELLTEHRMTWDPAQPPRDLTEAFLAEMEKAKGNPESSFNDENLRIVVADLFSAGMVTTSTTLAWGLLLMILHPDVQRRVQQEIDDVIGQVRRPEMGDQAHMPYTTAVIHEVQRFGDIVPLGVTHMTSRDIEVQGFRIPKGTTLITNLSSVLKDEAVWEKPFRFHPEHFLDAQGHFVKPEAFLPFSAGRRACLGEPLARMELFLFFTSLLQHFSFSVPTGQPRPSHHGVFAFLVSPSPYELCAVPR

| Compound | EC50 [1] | EC50 (H4) | EC50 [2] | other results |
| --- | --- | --- | --- | --- |
| CC(C)N(Cc1nccn1C)C(=O)CCc1nnc(CCCc2ccccc2)o1 | 12.7 µM (active) | 31.2 µM (active) | 15.5 µM (active) |  |
| CSc1ccc(/C=C(/NC(=O)c2ccccc2)C(=O)N2CCN(C)CC2)cc1 | > 120 µM (not active) | > 60 µM (not active) | > 120 µM (not active) |  |
| O=C(Nc1cc(Cl)ccc1-n1cncn1)c1ccc([N+](=O)[O-])o1 | > 120 µM (not active) | > 120 µM (not active) | > 120 µM (not active) | EC50 (Streptococcus): > 150 µM (not active); EC50 [3]: 11.7 µM (active); EC50 (Streptokinase A): 56.7 µM (inconclusive) |
| CC(C)(C)C(=O)Nc1ccc(N=Nc2ccccc2)cc1 |  |  |  | AC50 [4]: 4.35 µM (active); EC50 [5]: < 0.16 µM (active); EC50 (Protein RecA): 2.85 µM (active) |
| Cc1ccnc(NC(=O)CCc2c[nH]c3ccccc23)c1 |  |  |  | IC50 (cells): 21.6 µM (active) |
| CC(C)NC(=O)c1[nH]nc2c1CCc1ccccc1-2 | 5.26 µM (active) | 8.82 µM (active) | 56 µM (active) |  |
| C(=N\Nc1nc(-c2ccccc2)cs1)/c1cccnc1 | 0.198 µM (active) | 44.1 µM (active) | 33.3 µM (active) |  |
| CNC(=O)COC(=O)c1ccc(-c2nc3ccccc3s2)s1 |  | 56.3 µM (active) | 0.764 µM (active) | IC50 (cells): 5.82 µM (active) |
| c1ccc(CN2CC[C@@H](CNc3ncnc4ccccc34)C2)cc1 |  |  |  | AC50 (Cytochrome P450 1A2): 6.31 µM (inconclusive) |
| S=C(Nc1ccc(Br)cc1Cl)N1CCC2(CC1)OCCO2 | > 120 µM (not active) | 16 µM (active) | 23.5 µM (active) |  |
| O=C1NCCCC1C(=O)Nc1ccccc1C(F)(F)F (stereo not drawn) |  |  |  | AC50 (Cytochrome P450 1A2): 39.8 µM (inconclusive) |
| O=C(CSCc1ccccc1)Nc1cccc(C(=O)Nc2ccccc2C(=O)O)c1 |  |  |  | AC50 (Cytochrome P450 1A2): 15.8 µM (inconclusive) |
| O=C(NNC(=O)c1ccccc1F)c1ccc(-c2ccc(Cl)cc2)o1 |  |  |  | IC50 (cells): 8.21 µM (active) |
| Cc1nn(C(=O)c2cccnc2)c(C)c1Sc1ccc(Br)cc1 |  |  |  | EC50 (Streptococcus): > 150 µM (not active); AC50 [4]: 4.61 µM (active); EC50 [3]: 11.1 µM (active); EC50 (Protein RecA): 18.7 µM (active); AC50 (Cytochrome P450 2D6): 25.1 µM (inconclusive); AC50 (Cytochrome P450 3A4): 15.8 µM (inconclusive); EC50 (Streptokinase A): > 150 µM (not active) |
| Cc1ccc(NC(=O)c2ocnc2C)cc1Cl | 0.145 µM (active) | 6.44 µM (active) | 1.04 µM (active) |  |
| CC(=O)N1CCC2(CCN(Cc3cc(C(F)(F)F)cc(C(F)(F)F)c3)CC2)CC1 |  |  |  | AC50 (Cytochrome P450 1A2): 15.8 µM (inconclusive) |
| CCc1ccc(N2CCN(CCNC(=O)Nc3ccc(OC)cc3)CC2)cc1 |  |  |  | IC50 (cells): 38.2 µM (active) |
| O=c1c2ccccc2c2ccccc2c(=O)n1-c1cc2c3ccccc3ccc2c2ccccc12 |  |  |  | AC50 (Cytochrome P450 1A2): 6.31 µM (inconclusive) |
| O=[N+]([O-])c1ccc(/C=C2\CCC(C3=CCCC3)=C2N2CCOCC2)cc1 | > 120 µM (not active) | > 120 µM (not active) | > 120 µM (not active) |  |
| N[C@H](C(=O)O)[C@H](OCc1ccccc1)C(=O)O |  |  |  | AC50 (Cytochrome P450 1A2): 31.6 µM (inconclusive) |
| O=C(c1ccc(F)cc1)c1ccc(-c2ccc(F)cc2)nc1 | 4.41 µM (active) | 11.6 µM (active) | 11.9 µM (active) |  |
| CCCn1c(N)c(Sc2ccc(C)cc2)c(=O)n(CCC)c1=O | > 120 µM (not active) | > 120 µM (not active) | > 120 µM (not active) |  |
| COc1cc(/C=N/n2c(C)nnc2S)ccc1OCc1ccc(F)cc1 | > 120 µM (not active) | 32 µM (active) | > 120 µM (not active) |  |
| CCOc1ccc(-c2nc3ccccc3c(=O)o2)cc1 |  |  |  | IC50 (cells): 7.01 µM (active) |
| O=C(c1ccccc1)[C@H]1[C@H](c2ccccc2)[C@@]2(N=C(c3ccccc3)OC2=O)C2c3ccccc3C=NN21 (stereo partly drawn) | 6.71 µM (active) | > 120 µM (not active) | 19 µM (active) |  |
| O=C(Nc1c(F)cc(F)cc1Br)c1cc(-c2ccccc2)on1 |  |  |  | IC50 (cells): 4 µM (active) |
